Measurements taken from US12227511B2, “Bicyclic compounds as kinase modulators, methods and uses thereof” (Agency for Science, Technology and Research, priority 2018, dated 2025).
Where a name gives a salt, the structure may show the parent alone.

System: HCCLM3 cells
Assay: GI50 in HCCLM3 cells, cell viability by MTS assay
Type: cell-based
Details: Homo sapiens, 72 hours incubation, triplicates, read-out: HCCLM3 activity range (GI50)
Procedure: To investigate the effects of compounds on hepatocellular carcinoma (HCC) cell viability, HCCLM3 cells (HCC cells with high metastatic potential) were incubated with increasing concentrations of test compounds for 72 hours. Cell viability was evaluated at the end of incubation period by MTS assay. […] All samples were evaluated in triplicates.
As set forth in Table 1 below, GI50 values are defined as follows: GI50≤10 μM (+++); GI50>10 μM and ≤20 μM (++); GI50>20 μM (+).

Row | GI50 [µM] | SMILES
1 | ≤ 10 | COc1cc2nccc(Oc3ccc(NC(=O)C4(C(=O)NC56CC(C5)C6)CC4)cc3)c2cc1OC [Compound 1, N-(bicyclo[1.1.1]pentan-1-yl)-N-(4-(6,7-dimethoxyquinolin-4-yloxy)phenyl)cyclopropane-1,1-dicarboxamide]
2 | > 20 | COc1cc2nccc(Oc3ccc(NC(=O)C4(C(=O)NC56CC(c7ccccc7)(C5)C6)CC4)cc3)c2cc1OC [Compound 2, N-(4-((6,7-dimethoxyquinolin-4-yl)oxy)phenyl)-N-(3-phenylbicyclo[1.1.1]pentan-1-yl)cyclopropane-1,1-dicarboxamide]
3 | > 20 | COc1cc2nccc(Oc3ccc(NC(=O)C45CC(C(=O)NC67CC(F)(C6)C7)(C4)C5)cc3)c2cc1OC [Compound 3, N^1-(4-((6,7-dimethoxyquinolin-4-yl)oxy)phenyl)-N3-(3-fluorobicyclo[1.1.1]pentan-1-yl)bicyclo[1.1.1]pentane-1,3-dicarboxamide]
4 | ≤ 10 | COc1cc2nccc(Oc3ccc(NC(=O)C4(C(=O)NC56CC(F)(C5)C6)CC4)cc3)c2cc1OC [Compound 4, N-(4-((6,7-dimethoxyquinolin-4-yl)oxy)phenyl)-N-(3-fluorobicyclo[1.1.1]pentan-1-yl)cyclopropane-1,1-dicarboxamide]
5 | > 20 | COc1cc2nccc(Oc3ccc(NC(=O)C4(C(=O)NC56CC(OC(=O)c7ccccc7)(C5)C6)CC4)cc3)c2cc1OC [Compound 5, 3-(1-((4-((6,7-dimethoxyquinolin-4-yl)oxy)phenyl)carbamoyl)cyclopropane-1-carboxamido)bicyclo[1.1.1]pentan-1-yl benzoate]
6 | > 20 | COc1cc2nccc(Oc3ccc(NC(=O)C4(C(=O)NC56CC(O)(C5)C6)CC4)cc3)c2cc1OC [Compound 6, N-(4-((6,7-dimethoxyquinolin-4-yl)oxy)phenyl)-N-(3-hydroxybicyclo[1.1.1]pentan-1-yl)cyclopropane-1,1-dicarboxamide]
7 | > 20 | COc1cc2nccc(Oc3ccc(NC(=O)C4(C(=O)NC56CC(C(N)=O)(C5)C6)CC4)cc3)c2cc1OC [Compound 7, N-(3-carbamoylbicyclo[1.1.1]pentan-1-yl)-N-(4-((6,7-dimethoxyquinolin-4-yl)oxy)phenyl)cyclopropane-1,1-dicarboxamide]
8 | > 20 | COc1cc2nccc(Oc3ccc(NC(=O)C4(C(=O)NC56CC(C(=O)N(C)C)(C5)C6)CC4)cc3)c2cc1OC [Compound 8, N-(4-((6,7-dimethoxyquinolin-4-yl)oxy)phenyl)-N-(3-(dimethylcarbamoyl)bicyclo[1.1.1]pentan-1-yl)cyclopropane-1,1-dicarboxamide]
9 | > 20 | COc1cc2nccc(Oc3ccc(NC(=O)C4(C(=O)NC56CC(c7cnccn7)(C5)C6)CC4)cc3)c2cc1OC [Compound 9, N-(4-((6,7-dimethoxyquinolin-4-yl)oxy)phenyl)-N-(3-(pyrazin-2-yl)bicyclo[1.1.1]pentan-1-yl)cyclopropane-1,1-dicarboxamide]
10 | ≤ 10 | COc1cc2nccc(Oc3ccc(NC(=O)C4(C(=O)NC56CC(C)(C5)C6)CC4)cc3)c2cc1OC [Compound 10, N-(4-((6,7-dimethoxyquinolin-4-yl)oxy)phenyl)-N-(3-methylbicyclo[1.1.1]pentan-1-yl)cyclopropane-1,1-dicarboxamide]
11 | ≤ 10 | COc1cc2nccc(Oc3ccc(NC(=O)C4(C(=O)NC56CC(C(F)(F)F)(C5)C6)CC4)cc3)c2cc1OC [Compound 11, N-(4-((6,7-dimethoxyquinolin-4-yl)oxy)phenyl)-N-(3-(trifluoromethyl)bicyclo[1.1.1]pentan-1-yl)cyclopropane-1,1-dicarboxamide]
12 | > 20 | COc1cc2nccc(Oc3ccc(NC(=O)C4(C(=O)NC56CC(N)(C5)C6)CC4)cc3)c2cc1OC [Compound 12, N-(3-aminobicyclo[1.1.1]pentan-1-yl)-N-(4-((6,7-dimethoxyquinolin-4-yl)oxy)phenyl)cyclopropane-1,1-dicarboxamide]
13 | > 20 | COc1cc2nccc(Oc3ccc(NC(=O)C4(C(=O)NC56CC(NC(C)=O)(C5)C6)CC4)cc3)c2cc1OC [Compound 13, N-(3-acetamidobicyclo[1.1.1]pentan-1-yl)-N-(4-((6,7-dimethoxyquinolin-4-yl)oxy)phenyl)cyclopropane-1,1-dicarboxamide]
14 | > 20 | COc1cc2nccc(Oc3ccc(NC(=O)C4(C(=O)NC56CC(NC(=O)C7(C(=O)Nc8ccc(Oc9ccnc%10cc(OC)c(OC)cc9%10)cc8)CC7)(C5)C6)CC4)cc3)c2cc1OC [Compound 14, N,N′-(bicyclo[1.1.1]pentane-1,3-diyl)bis(N-(4-((6,7-dimethoxyquinolin-4-yl)oxy)phenyl)cyclopropane-1,1-dicarboxamide)]
15 | > 20 | COC(=O)C12CCC(NC(=O)C3(C(=O)Nc4ccc(Oc5ccnc6cc(OC)c(OC)cc56)cc4)CC3)(CC1)CC2 [Compound 15, methyl 4-(1-((4-((6,7-dimethoxyquinolin-4-yl)oxy)phenyl)carbamoyl)cyclopropane-1-carboxamido)bicyclo[2.2.2]octane-1-carboxylate]
16 | > 20 | CCOC(=O)[C@@H]1C2CCC(CC2)[C@H]1NC(=O)C1(C(=O)Nc2ccc(Oc3ccnc4cc(OC)c(OC)cc34)cc2)CC1 [Compound 16, ethyl (2R,3R)-3-(1-((4-((6,7-dimethoxyquinolin-4-yl)oxy)phenyl)carbamoyl)cyclopropane-1-carboxamido)bicyclo[2.2.2]octane-2-carboxylate]
17 | > 20 | COc1cc2nccc(Oc3ccc(NC(=O)C4(C(=O)NC56CNCC5C6)CC4)cc3)c2cc1OC (centres unmarked) [Compound 17, N-(3-azabicyclo[3.1.0]hexan-1-yl)-N-(4-((6,7-dimethoxyquinolin-4-yl)oxy)phenyl)cyclopropane-1,1-dicarboxamide]
18 | > 20 | COc1cc2nccc(Oc3ccc(NC(=O)C4(C(=O)NC56CC5CN(C(C)=O)C6)CC4)cc3)c2cc1OC (centres unmarked) [Compound 18, N-(3-acetyl-3-azabicyclo[3.1.0]hexan-1-yl)-N-(4-((6,7-dimethoxyquinolin-4-yl)oxy)phenyl)cyclopropane-1,1-dicarboxamide]
19 | > 20 | COc1cc2nccc(Oc3ccc(NC(=O)C4(C(=O)N5C[C@@H]6COC[C@@H](C6)C5)CC4)cc3)c2cc1OC [Compound 20, 1-((1R,5S)-3-oxa-7-azabicyclo[3.3.1]nonane-7-carbonyl)-N-(4-((6,7-dimethoxyquinolin-4-yl)oxy)phenyl)cyclopropane-1-carboxamide]
20 | > 20 | COc1cc2nccc(Oc3ccc(NC(=O)C4(C(=O)N5C[C@@H]6[C@H](C5)[C@H]6C(N)=O)CC4)cc3)c2cc1OC [Compound 22, EXO-3-(1-((4-((6,7-dimethoxyquinolin-4-yl)oxy)phenyl)carbamoyl)cyclopropane-1-carbonyl)-3-azabicyclo[3.1.0]hexane-6-carboxamide]
21 | 10 to 20 | COc1cc2nccc(Oc3ccc(NC(=O)C4(C(=O)NC56CCC(CC5)CC6)CC4)cc3)c2cc1OC [Compound 24, N-(bicyclo[2.2.2]octan-1-yl)-N-(4-((6,7-dimethoxyquinolin-4-yl)oxy)phenyl)cyclopropane-1,1-dicarboxamide]
22 | ≤ 10 | COc1cc2nccc(Oc3ccc(NC(=O)C4(C(=O)NC56CCC(CC5)C6)CC4)cc3)c2cc1OC [Compound 25, N-((1s,4s)-bicyclo[2.2.1]heptan-1-yl)-N-(4-((6,7-dimethoxyquinolin-4-yl)oxy)phenyl)cyclopropane-1,1-dicarboxamide]
23 | > 20 | COc1cc2nccc(Oc3ccc(NC(=O)C4(C(=O)N5CC6CC6C5)CC4)cc3)c2cc1OC (centres unmarked) [Compound 27, 1-(3-azabicyclo[3.1.0]hexane-3-carbonyl)-N-(4-((6,7-dimethoxyquinolin-4-yl)oxy)phenyl)cyclopropane-1-carboxamide]
24 | 10 to 20 | COc1cc2nccc(Oc3ccc(NC(=O)C4(C(=O)NC56CC7CC(CC(C7)C5)C6)CC4)cc3)c2cc1OC [Compound 28, N-((3R,5R)-adamantan-1-yl)-N-(4-((6,7-dimethoxyquinolin-4-yl)oxy)phenyl)cyclopropane-1,1-dicarboxamide]
25 | > 20 | COc1cc2nccc(Oc3ccc(NC(=O)C4(C(=O)NC56CC(C(=O)O)(C5)C6)CC4)cc3)c2cc1OC [Compound 29, 3-(1-((4-((6,7-dimethoxyquinolin-4-yl)oxy)phenyl)carbamoyl)cyclopropane-1-carboxamido)bicyclo[1.1.1]pentane-1-carboxylic acid hydrochloride]

Row | SMILES | GI50 [µM]
26 | COc1cc2nccc(Oc3ccc(NC(=O)C4(C(=O)N5[C@@H]6CC[C@H]5C[C@@H](OC)C6)CC4)cc3)c2cc1OC [Compound 19, N-(4-((6,7-dimethoxyquinolin-4-yl)oxy)phenyl)-1-((1R,3r,5S)-3-methoxy-8-azabicyclo[3.2.1]octane-8-carbonyl)cyclopropane-1-carboxamide] | > 20
27 | COc1cc2nccc(Oc3ccc(NC(=O)C4(C(=O)N5[C@@H]6CC[C@H]5C[C@H](C#N)C6)CC4)cc3)c2cc1OC [Compound 21, EXO-1-(3-cyano-8-azabicyclo[3.2.1]octane-8-carbonyl)-N-(4-((6,7-dimethoxyquinolin-4-yl)oxy)phenyl)cyclopropane-1-carboxamide] | > 20
28 | COc1cc2nccc(Oc3ccc(NC(=O)C4(C(=O)NC5C[C@H]6CC[C@@H](C5)N6C)CC4)cc3)c2cc1OC (stereo partly drawn) [Compound 23, ENDO-N-(4-((6,7-dimethoxyquinolin-4-yl)oxy)phenyl)-N-((1R,3r,5S)-8-methyl-8-azabicyclo[3.2.1]octan-3-yl)cyclopropane-1,1-dicarboxamide] | > 20
29 | COc1cc2nccc(Oc3ccc(NC(=O)C4(C(=O)N5C6CCCC5CCC6)CC4)cc3)c2cc1OC [Compound 26, 1-((1s,5s)-9-azabicyclo[3.3.1]nonane-9-carbonyl)-N-(4-((6,7-dimethoxyquinolin-4-yl)oxy)phenyl)cyclopropane-1-carboxamide] | > 20
